Data taken from patent US20170065564A1, “BIS-CYCLIC GUANIDINE COMPOUND COMPOSITIONS, METHODS OF USE AND TREATMENT THEREOF” (University of South Florida, priority 2014, published 2017).
Values after ≈ are worked out from the molar mass of the structure shown.

What was measured:
Format in all cases: cell-based
[1] = system: Pseudomonas aeruginosa biofilm; assay: Minimum biofilm eradication concentration (MBEC) assay; settings: 24 h biofilm, purified compound
Description: (§1) The minimum biofilm eradication concentration (MBEC) was determined in 96-well microtiter plates as follows. Broth cultures of ESKAPE strains were grown using the conditions described above. Biofilms for each of the ESKAPE pathogens were generated from these as we have previously described for S. aureus, however human serum was not used for non-staphylococcal organisms.^44 46 For all organisms, biofilms were developed by standardizing an overnight culture into fresh media to an OD600 of 0.5 and adding 150 μl into each well of a 96-well microtiter plate. […] These cultures were incubated at 37° C. overnight alongside no drug controls. After 24 hours, the media was removed from wells and the biofilm resuspended in phosphate buffered saline (PBS). Cultures were mixed by vigorous pipetting, before being serially diluted in PBS, and plated in duplicate on relevant agar. Plates were incubated at 37° C. for 24 hours, and CFUs determined by enumeration. Each analysis was performed using three technical replicates, and antibiofilm activity was determined by comparing treated to untreated samples.

[2] = system: Staphylococcus aureus biofilm; assay: as above; settings: 24 h biofilm, purified compound
Description: as §1

[3] = system: Enterobacter cloacae biofilm; assay: as above; settings: 24 h biofilm, purified compound
Description: as §1

[4] = system: Enterococcus faecium biofilm; assay: as above; settings: 24 h biofilm, purified compound
Description: as §1

Enterococcus faecium [5] = assay: MIC micro broth dilution assay; settings: for MIC: Enterococcus faecium
Procedure, shortened: (§2)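 Multidrug-resistant clinical ESKAPE isolates were grown overnight (Gram-positives in TSB, Gram-negatives in LB), diluted 1:1,000 and exposed to decreasing compound concentrations in DMF (≤2.0% DMF).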

Enterobacter cloacae [6] = assay: MIC micro broth dilution assay; settings: for MIC: Enterobacter cloacae
Procedure, shortened: as §2

Enterococcus faecium [7] = assay: Minimal bactericidal concentration (MBC) assay; settings: Enterococcus faecium, purified compound; read-out: MBC90
Description: (§3) Briefly, compound was washed by centrifugation and serial dilution, before plating on Tryptic Soy Agar (TSA). Plates were incubated for 24 hours at 37° C. and cell viability assessed by determining CFU/ml at each concentration, for every compound. Percent recovery was then determined compared to CFU/ml from no drug controls. All concentrations and controls were tested using three biological replicates, alongside two technical replicates for each data point.

Enterobacter cloacae [8] = assay: Minimal bactericidal concentration (MBC) assay; settings: Enterobacter cloacae; purified compound; read-out: MBC90
Description: as §3

Klebsiella pneumoniae [9] = assay: Minimal bactericidal concentration (MBC) assay; settings: Klebsiella pneumoniae, purified compound; read-out: MBC90
Description: as §3

Staphylococcus aureus [10] = assay: Minimal bactericidal concentration (MBC) assay; settings: Staphylococcus aureus, purified compound; read-out: MBC90
Description: as §3

Pseudomonas aeruginosa = assay: Minimal bactericidal concentration (MBC) assay; settings: Pseudomonas aeruginosa; purified compound; read-out: MBC90
Description: as §3

Acinetobacter baumannii = assay: Minimal bactericidal concentration (MBC) assay; settings: Acinetobacter baumannii, purified compound; read-out: MBC90
Description: as §3

Klebsiella pneumoniae [11] = assay: MIC micro broth dilution assay; settings: for MIC: Klebsiella pneumoniae
Procedure, shortened: as §2

Staphylococcus aureus [12] = assay: MIC micro broth dilution assay; settings: for MIC: Staphylococcus aureus
Procedure, shortened: as §2

CCCCCCCN1C(=N)N(CCCC[C@H]2CNC(=N)N2CCc2cccc(C(F)(F)F)c2)C[C@@H]1CCCC [Compound 1]
MBEC50 [1]: 19.68 µM
MBEC50 [2]: 13.87 µM
MBEC50 [3]: 13.02 µM
MBEC50 [4]: 38.84 µM
stacked score activity, 100/MIC, E (Enterococcus faecium [5]; E. faecium): 20
MIC (Enterococcus faecium [5]; E. faecium isolate 1406): 2 µM (≈ 1.1 µg/mL)
MIC (Enterococcus faecium [5]; E. faecium isolate 1407): 2 µM (≈ 1.1 µg/mL)
MIC (Enterococcus faecium [5]; E. faecium isolate 1432): 2 µM (≈ 1.1 µg/mL)
MIC (Enterococcus faecium [5]; E. faecium isolate 1438): 2 µM (≈ 1.1 µg/mL)
MIC (Enterococcus faecium [5]; E. faecium isolate 1439): 2 µM (≈ 1.1 µg/mL)
MIC (Enterococcus faecium [5]; E. faecium isolate 1443): 2 µM (≈ 1.1 µg/mL)
MIC (Enterococcus faecium [5]; E. faecium isolate 1444): 2 µM (≈ 1.1 µg/mL)
MIC (Enterococcus faecium [5]; E. faecium isolate 1449): 2 µM (≈ 1.1 µg/mL)
MIC (Enterococcus faecium [5]; E. faecium isolate 1450): 2 µM (≈ 1.1 µg/mL)
MIC (Enterococcus faecium [5]; E. faecium isolate 1451): 2 µM (≈ 1.1 µg/mL)
MIC (Enterococcus faecium [5]; purified compound, Table 1): 1.63 µM (≈ 0.898 µg/mL)
stacked score activity, 100/MIC, E (Enterobacter cloacae [6]; E. cloacae): 20
MIC (Enterobacter cloacae [6]; E. cloacae isolate 1404): 2 µM (≈ 1.1 µg/mL)
MIC (Enterobacter cloacae [6]; E. cloacae isolate 1405): 5 µM (≈ 2.75 µg/mL)
MIC (Enterobacter cloacae [6]; E. cloacae isolate 1430): 3 µM (≈ 1.65 µg/mL)
MIC (Enterobacter cloacae [6]; E. cloacae isolate 1431): 5 µM (≈ 2.75 µg/mL)
MIC (Enterobacter cloacae [6]; E. cloacae isolate 1445): 3 µM (≈ 1.65 µg/mL)
MIC (Enterobacter cloacae [6]; E. cloacae isolate 1446): 7 µM (≈ 3.86 µg/mL)
MIC (Enterobacter cloacae [6]; E. cloacae isolate 1447): 5 µM (≈ 2.75 µg/mL)
MIC (Enterobacter cloacae [6]; E. cloacae isolate 1448): 3 µM (≈ 1.65 µg/mL)
MIC (Enterobacter cloacae [6]; E. cloacae isolate 1454): 3 µM (≈ 1.65 µg/mL)
MIC (Enterobacter cloacae [6]; E. cloacae isolate 1455): 2 µM (≈ 1.1 µg/mL)
MIC (Enterobacter cloacae [6]; purified compound, Table 1): 1.63 µM (≈ 0.898 µg/mL)
concentration inhibiting 90% of isolates (Enterobacter cloacae [6]; panel of E. cloacae clinical isolates): 10 µM
MBC (Enterococcus faecium [7]): 1.87 µM (≈ 1.03 µg/mL)
MBC (Enterobacter cloacae [8]): 3.14 µM (≈ 1.73 µg/mL)
MBC (Klebsiella pneumoniae [9]): 2.36 µM (≈ 1.3 µg/mL)
MBC (Staphylococcus aureus [10]): 3.09 µM (≈ 1.7 µg/mL)
MBC (Pseudomonas aeruginosa): 4.01 µM (≈ 2.21 µg/mL)
MBC (Acinetobacter baumannii): 3.05 µM (≈ 1.68 µg/mL)
stacked score activity, 100/MIC, K (Klebsiella pneumoniae [11]; K. pneumoniae): 33
MIC (Klebsiella pneumoniae [11]; K. pneumoniae isolate 1408): 2 µM (≈ 1.1 µg/mL)
MIC (Klebsiella pneumoniae [11]; K. pneumoniae isolate 1409): 3 µM (≈ 1.65 µg/mL)
MIC (Klebsiella pneumoniae [11]; K. pneumoniae isolate 1410): 3 µM (≈ 1.65 µg/mL)
MIC (Klebsiella pneumoniae [11]; K. pneumoniae isolate 1411): 2 µM (≈ 1.1 µg/mL)
MIC (Klebsiella pneumoniae [11]; K. pneumoniae isolate 1412): 5 µM (≈ 2.75 µg/mL)
MIC (Klebsiella pneumoniae [11]; K. pneumoniae isolate 1413): 3 µM (≈ 1.65 µg/mL)
MIC (Klebsiella pneumoniae [11]; K. pneumoniae isolate 1433): 2 µM (≈ 1.1 µg/mL)
MIC (Klebsiella pneumoniae [11]; K. pneumoniae isolate 1434): 5 µM (≈ 2.75 µg/mL)
MIC (Klebsiella pneumoniae [11]; K. pneumoniae isolate 1440): 2 µM (≈ 1.1 µg/mL)
MIC (Klebsiella pneumoniae [11]; K. pneumoniae isolate 1441): 2 µM (≈ 1.1 µg/mL)
MIC (Klebsiella pneumoniae [11]; purified compound, Table 1): 1.63 µM (≈ 0.898 µg/mL)
concentration inhibiting 90% of isolates (Klebsiella pneumoniae [11]; panel of K. pneumoniae clinical isolates): 10 µM
stacked score activity, 100/MIC, S (Staphylococcus aureus [12]; S. aureus): 50
MIC (Staphylococcus aureus [12]; S. aureus isolate 542): 2 µM (≈ 1.1 µg/mL)
MIC (Staphylococcus aureus [12]; S. aureus isolate 626): 2 µM (≈ 1.1 µg/mL)
MIC (Staphylococcus aureus [12]; S. aureus isolate 635): 2 µM (≈ 1.1 µg/mL)
MIC (Staphylococcus aureus [12]; S. aureus isolate 648): 2 µM (≈ 1.1 µg/mL)
MIC (Staphylococcus aureus [12]; S. aureus isolate 690): 2 µM (≈ 1.1 µg/mL)
MIC (Staphylococcus aureus [12]; S. aureus isolate 693): 2 µM (≈ 1.1 µg/mL)
MIC (Staphylococcus aureus [12]; S. aureus isolate 715): 2 µM (≈ 1.1 µg/mL)
MIC (Staphylococcus aureus [12]; S. aureus isolate 728): 2 µM (≈ 1.1 µg/mL)
MIC (Staphylococcus aureus [12]; S. aureus isolate 834): 2 µM (≈ 1.1 µg/mL)
MIC (Staphylococcus aureus [12]; S. aureus isolate 1043): 2 µM (≈ 1.1 µg/mL)
MIC (Staphylococcus aureus [12]; S. aureus isolate 1049): 2 µM (≈ 1.1 µg/mL)
MIC (Staphylococcus aureus [12]; purified compound, Table 1): 1.63 µM (≈ 0.898 µg/mL)
